In PubChem BioAssay AID2060330 (Molecular Pharmacology Branch, DTP, NCI, 2025):

Tested on: LG0703-F948-PDC spheroids with HUVEC/MSC, viability
Assay: Anticancer human tumor LG0703-F948-PDC patient-derived lung adenocarcinoma cell line growth inhibition [IpAb]
Conditions: for IC50: curve of first compound; for viability, T/C: stronger effect = lower value; active = viability on the fitted dose curve at most 10% of control; inactive = the rest
From the text: Combinatorial screen of targeted agents with ipatasertib and abemaciclib in multi-cell type tumor spheroids
A high-throughput screen of multi-cell type tumor spheroids was designed to identify active combinations of targeted small molecules and ipatasertib or abemaciclib. Complex spheroids include a stromal component modeled by human endothelial cells (HUVEC) and fibroblasts modeled by human mesenchymal stem cells (MSCs). The concentration ranges selected for each drug and investigational agent were based upon clinically achievable concentrations if the clinical Cmax of the agent was known.
Compounds. The drugs and investigational agents: ipatasertib (NSC767898), abemaciclib(NSC768073), selumetinib (NSC741078), trametinib (758246), adavosertib (NSC754352), everolimus (NSC733504), sapanisertib (NSC764658), vemurafenib (NSC761431), venetoclax (NSC766270), copanlisib (NSC809693), apelisib (NSC765974), palbociblib (NSC758247), vemurafenib (NSC761431), dabrafenib (NSC764134), ravoxertinib (NSC781343), BMS-387032 (NSC767048), sotorasib (NSC818433), talazoparib (NSC767125) and afursertib (NSC778305), were obtained from the National Cancer Institute (NCI) Developmental Therapeutics Program Chemical Repository. The FDA-approved anticancer drug set is available from the NCI Developmental Therapeutics Program. […] The stock solutions were prepared in dimethyl sulfoxide (DMSO, Sigma-Aldrich, St. Louis, MO, cat. D2650) at 800-fold the tested concentration and stored at -70 degrees C prior to their use. All drugs and investigational agents were tested over a range starting from a high concentration at or near the clinical Cmax and decreasing in half-log increments. If the clinical Cmax for an agent had not been determined, the highest concentration tested was 10 microM.
NCI60 Cell Culture. NCI60 cell lines were obtained from the NCI Developmental Therapeutics Program Tumor Repository. For each lot of cells, the Repository performed Applied Biosystems AmpFLSTR Identifiler testing with PCR amplification to confirm consistency with the published Identifier STR profile for each cell line. Cells were kept in continuous culture for no more than 20 passages. The optimal seeding densities for each of the cell lines at each time point assessed were determined prior to performing the concentration response studies. Briefly, the NCI60 human tumor lines were grown as monolayers in RPMI 1640 medium supplemented with 10% FBS and 2 mmol/L L-glutamine.
An additional 9 lines were from the NCI60 cell line panel including MDA-MB-231 breast carcinoma, MDA-MB-468 breast carcinoma, MCF7 breast carcinoma, Hs578T breast carcinoma, MALME-3M melanoma, SK-MEL-2 melanoma, SK-OV-3 ovarian carcinoma, DU-145 prostate carcinoma, PC-3 prostate carcinoma, all cell lines along with major genetic alterations are listed on Table 2. Pooled donor human umbilical vein endothelial cells (HUVEC, Lonza, cat. CC-2519) and human mesenchymal stem cells (hMSC, Lonza, cat. PT-2501) were purchased from Lonza (Walkersville, MD).
PDMR cell lines were grown in complete medium (DC medium): Dulbecco's modified Eagle's medium (DMEM)/F12 supplemented with 5% fetal bovine serum (FBS), 2 mM L-glutamine, 100 U/mL penicillin and 100 µg/ml streptomycin, 0.4 µg/ml hydrocortisone, 10 ng/ml epidermal growth factor (EGF) recombinant human protein, 24 µg/mL adenine, and 0.1 mg/mL primocin. During culture from frozen stock vials, PDMR cells were cultured in the same medium containing 10 µM Y-27632 (see Table 3). The PDCs were cultured in complete DMEM/F12 media without 10 microM Y-27632 dihydrochloride for at least two passages prior to the screen. The pooled donor HUVEC and hMSC were cultured in endothelial cell growth medium 2 (PromoCell, Heidelberg, Germany, cat. C-22011) and mesenchymal stem cell growth medium 2 (PromoCell, cat. C-28009), respectively. For all experiments, HUVEC and hMSC were used at passages </=5.
[…]

[1] = second compound 0.1 µM, first compound 0.0316 µM
[2] = second compound 0.1 µM, first compound 0.1 µM
[3] = second compound 0.1 µM, first compound 0.316 µM
[4] = second compound 0.1 µM, first compound 1 µM
[5] = second compound 0.316 µM, first compound 0.0316 µM
[6] = second compound 0.316 µM, first compound 0.1 µM
[7] = second compound 0.316 µM, first compound 0.316 µM
[8] = second compound 0.316 µM, first compound 1 µM
[9] = second compound 1 µM, first compound 0.0316 µM
[10] = second compound 1 µM, first compound 0.1 µM
[11] = second compound 1 µM, first compound 0.316 µM
[12] = second compound 1 µM, first compound 1 µM
[13] = second compound 3.16 µM, first compound 0.0316 µM
[14] = second compound 3.16 µM, first compound 0.1 µM
[15] = second compound 3.16 µM, first compound 0.316 µM
[16] = second compound 3.16 µM, first compound 1 µM
[17] = second compound 10 µM, first compound 0.0316 µM
[18] = second compound 10 µM, first compound 0.1 µM
[19] = second compound 10 µM, first compound 0.316 µM
[20] = second compound 10 µM, first compound 1 µM
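Note: spheroids exposed to compounds for seven days before readout.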
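Throughout, for viability, T/C: T/C percent relative to DMSO vehicle wells set as 100% viability.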

CC(=O)c1c(C)c2cnc(Nc3ccc(N4CCNCC4)cn3)nc2n(C2CCCC2)c1=O + CC(C)NCC(C(=O)N1CCN(c2ncnc3c2C(C)CC3O)CC1)c1ccc(Cl)cc1
< 0.949 nM: IC50 (second compound 3.16 µM) | IC50 (second compound 10 µM)
inactive: viability, T/C (second compound 0.1 µM, first compound 0.000949 µM) 86.8% | viability, T/C (second compound 0.1 µM, first compound 0.003 µM) 86% | viability, T/C (second compound 0.1 µM, first compound 0.00949 µM) 84.8% | viability, T/C (second compound 0.1 µM, first compound 0.03 µM) 73.3% | viability, T/C (second compound 0.1 µM, first compound 0.0949 µM) 80.4% | viability, T/C (second compound 0.1 µM, first compound 0.3 µM) 73.4% | viability, T/C (second compound 0.316 µM, first compound 0.000949 µM) 70.5% | viability, T/C (second compound 0.316 µM, first compound 0.003 µM) 69.7% | viability, T/C (second compound 0.316 µM, first compound 0.00949 µM) 60.5% | viability, T/C (second compound 0.316 µM, first compound 0.03 µM) 62.5% | viability, T/C (second compound 0.316 µM, first compound 0.0949 µM) 58.4% | viability, T/C (second compound 0.316 µM, first compound 0.3 µM) 60.3% | viability, T/C (second compound 1 µM, first compound 0.000949 µM) 54.6% | viability, T/C (second compound 1 µM, first compound 0.003 µM) 53.1% | viability, T/C (second compound 1 µM, first compound 0.00949 µM) 42.4% | viability, T/C (second compound 1 µM, first compound 0.03 µM) 41.8% | viability, T/C (second compound 1 µM, first compound 0.0949 µM) 42.1% | viability, T/C (second compound 1 µM, first compound 0.3 µM) 43.9% | viability, T/C (second compound 3.16 µM, first compound 0.000949 µM) 50.1% | viability, T/C (second compound 3.16 µM, first compound 0.003 µM) 41.8% | viability, T/C (second compound 3.16 µM, first compound 0.00949 µM) 41.7% | viability, T/C (second compound 3.16 µM, first compound 0.03 µM) 42.2% | viability, T/C (second compound 3.16 µM, first compound 0.0949 µM) 34.9% | viability, T/C (second compound 3.16 µM, first compound 0.3 µM) 33.5% | viability, T/C (second compound 10 µM, first compound 0.000949 µM) 41.5% | viability, T/C (second compound 10 µM, first compound 0.003 µM) 37.9% | viability, T/C (second compound 10 µM, first compound 0.00949 µM) 43.5% | viability, T/C (second compound 10 µM, first compound 0.03 µM) 40% | viability, T/C (second compound 10 µM, first compound 0.0949 µM) 33.5% | viability, T/C (second compound 10 µM, first compound 0.3 µM) 27.5%
> 300 nM: IC50 (second compound 0.1 µM) | IC50 (second compound 0.316 µM)
2.55 nM: IC50 (second compound 1 µM)

COc1c(OCCCN2CCOCC2)ccc2c3n(c(=NC(=O)c4cnc(N)nc4)nc12)CCN3 + CC(C)NCC(C(=O)N1CCN(c2ncnc3c2C(C)CC3O)CC1)c1ccc(Cl)cc1
3.91 nM: IC50 (second compound 1 µM)
active: viability, T/C [3] 6.53% | viability, T/C [4] 4.98% | viability, T/C [7] 5.88% | viability, T/C [8] 3.95% | viability, T/C [11] 5.86% | viability, T/C [12] 4.35% | viability, T/C [15] 4.56% | viability, T/C [16] 4.47% | viability, T/C [19] 3.76% | viability, T/C [20] 2.45%
< 3.16 nM: IC50 (second compound 3.16 µM) | IC50 (second compound 10 µM)
13.6 nM: IC50 (second compound 0.316 µM)
26.6 nM: IC50 (second compound 0.1 µM)
inactive: viability, T/C (second compound 0.1 µM, first compound 0.00316 µM) 84.6% | viability, T/C (second compound 0.1 µM, first compound 0.01 µM) 70.1% | viability, T/C [1] 47% | viability, T/C [2] 21.8% | viability, T/C (second compound 0.316 µM, first compound 0.00316 µM) 66.5% | viability, T/C (second compound 0.316 µM, first compound 0.01 µM) 51.5% | viability, T/C [5] 39.8% | viability, T/C [6] 15.7% | viability, T/C (second compound 1 µM, first compound 0.00316 µM) 52.1% | viability, T/C (second compound 1 µM, first compound 0.01 µM) 42.5% | viability, T/C [9] 30.1% | viability, T/C [10] 11.3% | viability, T/C (second compound 3.16 µM, first compound 0.00316 µM) 41.9% | viability, T/C (second compound 3.16 µM, first compound 0.01 µM) 35.7% | viability, T/C [13] 19.8% | viability, T/C [14] 11.6% | viability, T/C (second compound 10 µM, first compound 0.00316 µM) 38.6% | viability, T/C (second compound 10 µM, first compound 0.01 µM) 28.4% | viability, T/C [17] 25.3% | viability, T/C [18] 7.44%

Cc1nc(NC(=O)N2CCCC2C(N)=O)sc1-c1ccnc(C(C)(C)C(F)(F)F)c1 (stereo not given) + CC(C)NCC(C(=O)N1CCN(c2ncnc3c2C(C)CC3O)CC1)c1ccc(Cl)cc1
64.8 nM: IC50 (second compound 1 µM)
< 31.6 nM: IC50 (second compound 3.16 µM) | IC50 (second compound 10 µM)
active: viability, T/C (second compound 0.1 µM, first compound 10 µM) 2.44% | viability, T/C (second compound 0.316 µM, first compound 10 µM) 2.34% | viability, T/C (second compound 1 µM, first compound 10 µM) 1.78% | viability, T/C (second compound 3.16 µM, first compound 10 µM) 2.03% | viability, T/C (second compound 10 µM, first compound 10 µM) 1.55%
929 nM: IC50 (second compound 0.1 µM)
366 nM: IC50 (second compound 0.316 µM)
inactive: viability, T/C [1] 77.9% | viability, T/C [2] 76.6% | viability, T/C [3] 64.3% | viability, T/C [4] 50.7% | viability, T/C (second compound 0.1 µM, first compound 3.16 µM) 22.4% | viability, T/C [5] 59.6% | viability, T/C [6] 60.8% | viability, T/C [7] 52.1% | viability, T/C [8] 36.5% | viability, T/C (second compound 0.316 µM, first compound 3.16 µM) 21.1% | viability, T/C [9] 54% | viability, T/C [10] 46.7% | viability, T/C [11] 39.7% | viability, T/C [12] 32.1% | viability, T/C (second compound 1 µM, first compound 3.16 µM) 13.8% | viability, T/C [13] 45.5% | viability, T/C [14] 39.7% | viability, T/C [15] 35.8% | viability, T/C [16] 24.1% | viability, T/C (second compound 3.16 µM, first compound 3.16 µM) 13.1% | viability, T/C [17] 39.5% | viability, T/C [18] 33.4% | viability, T/C [19] 35.9% | viability, T/C [20] 19% | viability, T/C (second compound 10 µM, first compound 3.16 µM) 12.3%
